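The concentration for 50% growth inhibition is given as GI50. At the TGI there is no net growth.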
What was measured:
Assay in all cases: DTP human tumour cell line panel, 384-well format
MDA-MB-231 breast = tested on: MDA-MB-231 breast
HOP-62 NSCLC = tested on: HOP-62 NSCLC
SNB-19 CNS = tested on: SNB-19 CNS
HL-60(TB) leukemia = tested on: HL-60(TB) leukemia
UACC-62 melanoma = tested on: UACC-62 melanoma
SK-MEL-28 melanoma = tested on: SK-MEL-28 melanoma
A498 renal = tested on: A498 renal
NCI/ADR-RES ovarian = tested on: NCI/ADR-RES ovarian
ACHN renal = tested on: ACHN renal
SK-OV-3 ovarian = tested on: SK-OV-3 ovarian
OVCAR-3 ovarian = tested on: OVCAR-3 ovarian
SN12C renal = tested on: SN12C renal
NCI-H522 lung = tested on: NCI-H522 lung
M14 melanoma = tested on: M14 melanoma
RPMI-8226 leukemia = tested on: RPMI-8226 leukemia
EKVX NSCLC = tested on: EKVX NSCLC
CCRF-CEM leukemia = tested on: CCRF-CEM leukemia
CAKI-1 renal = tested on: CAKI-1 renal
HOP-92 NSCLC = tested on: HOP-92 NSCLC
OVCAR-5 ovarian = tested on: OVCAR-5 ovarian
SK-MEL-2 melanoma = tested on: SK-MEL-2 melanoma
NCI-H226 lung = tested on: NCI-H226 lung
RXF 393 renal = tested on: RXF 393 renal
MDA-MB-468 breast = tested on: MDA-MB-468 breast
NCI-H322M lung = tested on: NCI-H322M lung
SF-268 CNS = tested on: SF-268 CNS
OVCAR-8 ovarian = tested on: OVCAR-8 ovarian
NCI-H23 lung = tested on: NCI-H23 lung
K-562 leukemia = tested on: K-562 leukemia

In the case of `Cn1nccc1Nc1nccc(-c2cc3c(s2)C(C)(C)N(CCN2CCOCC2)C3=O)n1`, the GI50 (MDA-MB-231 breast) is reported as 3.5 µM, the TGI (MDA-MB-231 breast) is reported as > 100 µM and the GI50 (HOP-62 NSCLC) is reported as 8.17 µM. For the same compound, the TGI (HOP-62 NSCLC) was > 100 µM, the GI50 (SNB-19 CNS) was 64.7 µM and the TGI (SNB-19 CNS) was > 100 µM. The GI50 (HL-60(TB) leukemia) was 0.264 µM, the TGI (HL-60(TB) leukemia) was 10.1 µM and the GI50 (UACC-62 melanoma) was 0.138 µM. For the same compound, the TGI (UACC-62 melanoma) was 1.76 µM, the GI50 (SK-MEL-28 melanoma) was 0.177 µM and the TGI (SK-MEL-28 melanoma) was 0.797 µM. For the same compound, the GI50 (A498 renal) was 5.15 µM, the TGI (A498 renal) was > 100 µM and the GI50 (NCI/ADR-RES ovarian) was > 100 µM. For the same compound, the TGI (NCI/ADR-RES ovarian) was > 100 µM, the GI50 (ACHN renal) was 16.9 µM and the TGI (ACHN renal) was > 100 µM. For the same compound, the GI50 (SK-OV-3 ovarian) was 25.2 µM, the TGI (SK-OV-3 ovarian) was > 100 µM and the GI50 (OVCAR-3 ovarian) was 51.4 µM. For the same compound, the TGI (OVCAR-3 ovarian) was > 100 µM, the GI50 (SN12C renal) was 39.2 µM and the TGI (SN12C renal) was > 100 µM. For the same compound, the GI50 (NCI-H522 lung) was 1.65 µM, the TGI (NCI-H522 lung) was 20.8 µM and the GI50 (M14 melanoma) was 0.157 µM. For the same compound, the TGI (M14 melanoma) was 0.905 µM, the GI50 (RPMI-8226 leukemia) was 2.23 µM and the TGI (RPMI-8226 leukemia) was 8.87 µM. For the same compound, the GI50 (EKVX NSCLC) was > 100 µM, the TGI (EKVX NSCLC) was > 100 µM and the GI50 (CCRF-CEM leukemia) was 34.2 µM. For the same compound, the TGI (CCRF-CEM leukemia) was > 100 µM, the GI50 (CAKI-1 renal) was 3.31 µM and the TGI (CAKI-1 renal) was > 100 µM. The GI50 (HOP-92 NSCLC) was 4.27 µM, the TGI (HOP-92 NSCLC) was > 100 µM and the GI50 (OVCAR-5 ovarian) was 0.989 µM. For the same compound, the TGI (OVCAR-5 ovarian) was > 100 µM, the GI50 (SK-MEL-2 melanoma) was 0.372 µM and the TGI (SK-MEL-2 melanoma) was 1.45 µM. The GI50 (NCI-H226 lung) was 14.2 µM, the TGI (NCI-H226 lung) was > 100 µM and the GI50 (RXF 393 renal) was > 100 µM. For the same compound, the TGI (RXF 393 renal) was > 100 µM, the GI50 (MDA-MB-468 breast) was 19.3 µM and the TGI (MDA-MB-468 breast) was 89 µM. For the same compound, the GI50 (NCI-H322M lung) was 7.59 µM, the TGI (NCI-H322M lung) was > 100 µM and the GI50 (SF-268 CNS) was 50.9 µM. The TGI (SF-268 CNS) was > 100 µM, the GI50 (OVCAR-8 ovarian) was 34.8 µM and the TGI (OVCAR-8 ovarian) was > 100 µM. It also gave a GI50 (NCI-H23 lung) of 0.301 µM, a TGI (NCI-H23 lung) of 9.1 µM and a GI50 (K-562 leukemia) of 4.74 µM. The TGI (K-562 leukemia) was > 100 µM.

From PubChem BioAssay (NCI)
